Laboratory results published in publication PMC3962490, “The Yeast Ess1 Prolyl Isomerase Controls Swi6 and Whi5 Nuclear Localization” (G3: Genes|Genomes|Genetics, 2014).
Like-named read-outs stand apart in the source and are kept apart here. Non-standard residues stand in square brackets, D forms with d. Residues, ends and D or L forms follow the SMILES beside them. *: point of attachment. Biotin = O=C1N[C@H]2[C@H](CS[C@H]2CCCCC(=O)*)N1; pS = N[C@@H](COP(=O)(O)O)C(=O)O

Biological target: T1, Recombinant S. cerevisiae Ess1 protein (Saccharomyces cerevisiae, UniProt P22696)
T1 construct: made in house; host or cells: Escherichia coli
T1 sequence (P22696 1-170): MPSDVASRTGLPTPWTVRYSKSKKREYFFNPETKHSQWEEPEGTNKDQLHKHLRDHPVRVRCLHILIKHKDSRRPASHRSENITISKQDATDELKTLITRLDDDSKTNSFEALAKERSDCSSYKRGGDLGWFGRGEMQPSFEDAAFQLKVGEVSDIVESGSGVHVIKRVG
Test: Biolayer interferometry (BLI) kinetic assays of Ess1/peptide binding
Settings: for Ess1 binding (in words) / Kd / kon: BLI; for Ess1 binding (in words): Ess1 3, 10, 30 μM, Figure 6, S1, S3; for kon: slope of kobs vs Ess1 concentration (Fig. S2), read-out: ka (association rate); for koff: read-out: kd (dissociation rate)
Procedure: Biolayer interferometry (BLI) was measured at 24° with an Octet RED system (FortéBio), essentially as described ([Shah and Duncan 2013]; [Shah et al. 2013]). Peptides were synthesized with N-terminal biotinylation (NEOBioLab). Phosphoserine residues were incorporated during synthesis and all peptides were purified to >95% purity by high-performance liquid chromatography (NEOBioLab). Each peptide included 4-6 N-terminal residues (typically [Gly-Gly-Ser]2) as a flexible linker to facilitate binding of Ess1 protein to the surface-immobilized peptide. BLI assays were carried out in 20 mM Tris-HCl pH 8.0, 1 mg/mL bovine serum albumin (Sigma-Aldrich; A6003-10G). Different peptides were immobilized on separate streptavidin-coated biosensors (FortéBio; cat. no. 18-5019). For each peptide sequence, sensors loaded with phosphorylated or unphosphorylated peptides were assayed in parallel, and the peptide concentrations (50−200 nM) and time of loading were controlled to achieve essentially the same level of peptide signal loaded, regardless of phosphorylation status (e.g., Figure S1). Recombinant S. cerevisiae Ess1 protein was purified from Escherichia coli as described ([Li et al. 2005]). Ess1 was incubated with peptide-loaded and control (no peptide) biosensors to measure kinetics of Ess1/peptide association, and sensors were moved to buffer alone to measure dissociation kinetics. To correct for low but significant nonspecific binding of Ess1 to sensors, data from a sensor without peptide within the same experiment were subtracted for each concentration of Ess1 used. For direct comparison of Ess1 binding to different peptides (Figure 6), signals were normalized for the levels of sensor-loaded peptide (0.2−0.5 nm) between sequential runs within the experiment. Data were analyzed using FortéBio Data Analysis software (Versions 6.4), and by linear and nonlinear regression in Prism (GraphPad, version 4).
To determine whether Ess1 interacts directly with Swi6 and Whi5, we conducted binding assays by using purified Ess1 protein and phospho-Ser-Pro or Ser-Pro peptides corresponding to the NLS motif of Swi6 and both NLS and NES motifs of Whi5. Binding was assayed using BLI ([Shah and Duncan 2013]). In brief, biotinylated peptides corresponding to the NLS or NES motifs were immobilized on streptavidin-coated sensors and binding of purified Ess1 protein was measured using BLI. Ess1 protein binding to immobilized peptide changes the optical interference at the sensor surface, measured as nm of spectral shift. Using this approach, we monitored the kinetics of binding and dissociation of Ess1. […] Binding was dependent on Ess1 concentration (3, 10, and 30 μM were used).
Figure 6 In vitro binding of Ess1 to Swi6 and Whi5 peptides. Kinetics for binding and dissociation of purified Ess1 protein with NLS and NES peptides were monitored using biolayer interferometry (BLI). Sensor-immobilized peptides: (A) carboxy-terminal domain (CTD) of RNA polymerase II (RNAPII), (B) Swi6-NLS, (C) Whi5-NLS, and (D) Whi5-NES. Data for phosphorylated peptides (P) are shown in black, unphosphorylated peptides (Un) in blue, and fitting curves are shown in red. Biotinylated peptides were loaded on individual streptavidin sensors, followed by a wash to remove unbound peptide. To measure Ess1 binding, sensors were transferred from buffer alone to buffer containing 3, 10, or 30 μM Ess1 protein (time zero) as indicated. After 300 sec, sensors were transferred to fresh buffer (without Ess1) to monitor Ess1 dissociation. Examples of raw data for these experiments, including the peptide-loading step and control sensors with no peptide are shown in Figure S1.
Table S4 Fitting Results for BLI Kinetic Assays
Peptide ka (M-1s-1) ±SD kd (s-1) ±SD %Rmax ±SD
Summary of results for fitting curves of BLI kinetic data (Fig. 6). The dissociation rate (kd) is an average (±standard deviation
(SD)) for fits at 3 concentrations of each peptide (3, 10, 30 µM). […]

[1] = estimated from binding isotherm F = E/(E + Kapp) with signal at 30 μM Ess1 relative to saturated signal of the cognate phosphorylated peptide, read-out: Kapp (estimated, unphosphorylated peptides)
[2] = 24°, 20 mM Tris-HCl pH 8.0, 1 mg/mL BSA, plateau binding responses vs Ess1 concentration (3, 10, 30 μM) fit to hyperbolic binding isotherm, read-out: KappEq (Equilibrium)

Molecule | Ess1 binding (in words) | Kd [1] | Kd [2] | kon | koff
C[C@@H](O)[C@H](NC(=O)[C@@H]1CCCN1C(=O)[C@H](CO)NC(=O)[C@H](Cc1ccc(O)cc1)NC(=O)[C@H](CO)NC(=O)CNC(=O)CNC(=O)[C@H](CO)NC(=O)CNC(=O)CNC(=O)CCCC[C@@H]1SC[C@@H]2NC(=O)N[C@@H]21)C(=O)N[C@@H](CO)C(=O)N1CCC[C@H]1C(=O)N[C@@H](CO)C(=O)N[C@@H](Cc1ccc(O)cc1)C(=O)N[C@@H](CO)C(=O)O [CTD, reference compound] (Biotin-GGSGGSYSPTSPSYS-OH; N-terminus and C-terminus assumed) | very little binding | > 300 µM | – | – | –
C[C@@H](O)[C@H](NC(=O)[C@@H]1CCCN1C(=O)[C@H](CO)NC(=O)[C@H](Cc1ccc(O)cc1)NC(=O)[C@H](CO)NC(=O)CNC(=O)CNC(=O)[C@H](CO)NC(=O)CNC(=O)CN)C(=O)N[C@@H](COP(=O)(O)O)C(=O)N1CCC[C@H]1C(=O)N[C@@H](CO)C(=O)N[C@@H](Cc1ccc(O)cc1)C(=O)N[C@@H](CO)C(=O)O [CTD-P, reference compound] (H-GGSGGSYSPT[pS]PSYS-OH) | – | – | 1.65 ± 0.06 µM | 27100 M⁻¹ s⁻¹ | 0.0923 s⁻¹
CC(C)C[C@H](NC(=O)[C@H](CCC(=O)O)NC(=O)[C@H](CCCNC(=N)N)NC(=O)[C@H](CO)NC(=O)CNC(=O)CNC(=O)[C@H](CO)NC(=O)CNC(=O)CN)C(=O)NCC(=O)N[C@@H](COP(=O)(O)O)C(=O)N1CCC[C@H]1C(=O)N[C@@H](CC(C)C)C(=O)N[C@@H](CCCCN)C(=O)N[C@@H](CCCCN)C(=O)O [Swi6-NLS-P] (H-GGSGGSRELG[pS]PLKK-OH) | – | – | 10.1 ± 5.1 µM | 25100 M⁻¹ s⁻¹ | 0.254 s⁻¹
CC(C)C[C@H](NC(=O)[C@H](CCC(=O)O)NC(=O)[C@H](CCCNC(=N)N)NC(=O)[C@H](CO)NC(=O)CNC(=O)CNC(=O)[C@H](CO)NC(=O)CNC(=O)CNC(=O)CCCC[C@@H]1SC[C@@H]2NC(=O)N[C@@H]21)C(=O)NCC(=O)N[C@@H](CO)C(=O)N1CCC[C@H]1C(=O)N[C@@H](CC(C)C)C(=O)N[C@@H](CCCCN)C(=O)N[C@@H](CCCCN)C(=O)O [Swi6-NLS] (Biotin-GGSGGSRELGSPLKK-OH; N-terminus and C-terminus assumed) | – | > 100 µM | – | – | –
CC(C)C[C@H](NC(=O)[C@H](CCCNC(=N)N)NC(=O)[C@@H]1CCCN1C(=O)[C@H](COP(=O)(O)O)NC(=O)[C@@H]1CCCN1C(=O)[C@H](COP(=O)(O)O)NC(=O)[C@H](CC(C)C)NC(=O)[C@H](Cc1ccccc1)NC(=O)CNC(=O)CNC(=O)[C@H](CO)NC(=O)CNC(=O)CN)C(=O)N[C@@H](CCCNC(=N)N)C(=O)N[C@@H](COP(=O)(O)O)C(=O)N1CCC[C@H]1C(=O)N1CCC[C@H]1C(=O)N[C@H](C(=O)O)[C@@H](C)O [Whi5-NES-P] (H-GGSGGFL[pS]P[pS]PRLR[pS]PPT-OH) | – | – | 1.13 ± 0.18 µM | 17500 M⁻¹ s⁻¹ | 0.0503 s⁻¹
CC(C)C[C@H](NC(=O)[C@H](CCCNC(=N)N)NC(=O)[C@@H]1CCCN1C(=O)[C@H](CO)NC(=O)[C@@H]1CCCN1C(=O)[C@H](CO)NC(=O)[C@H](CC(C)C)NC(=O)[C@H](Cc1ccccc1)NC(=O)CNC(=O)CNC(=O)[C@H](CO)NC(=O)CNC(=O)CNC(=O)CCCC[C@@H]1SC[C@@H]2NC(=O)N[C@@H]21)C(=O)N[C@@H](CCCNC(=N)N)C(=O)N[C@@H](CO)C(=O)N1CCC[C@H]1C(=O)N1CCC[C@H]1C(=O)N[C@H](C(=O)O)[C@@H](C)O [Whi5-NES] (Biotin-GGSGGFLSPSPRLRSPPT-OH; N-terminus and C-terminus assumed) | – | > 1500 µM | – | – | –
CC[C@H](C)[C@H](NC(=O)CNC(=O)[C@@H]1CCCN1C(=O)[C@@H]1CCCN1C(=O)[C@H](COP(=O)(O)O)NC(=O)[C@@H]1CCCN1C(=O)[C@@H]1CCCN1C(=O)[C@H](COP(=O)(O)O)NC(=O)[C@@H]1CCCN1C(=O)[C@@H](NC(=O)CNC(=O)CNC(=O)[C@H](CO)NC(=O)CNC(=O)CN)[C@@H](C)O)C(=O)O [Whi5-NLS-P] (H-GGSGGTP[pS]PP[pS]PPGI-OH) | – | – | 0.48 ± 0.46 µM | 22800 M⁻¹ s⁻¹ | 0.0722 s⁻¹
CC[C@H](C)[C@H](NC(=O)CNC(=O)[C@@H]1CCCN1C(=O)[C@@H]1CCCN1C(=O)[C@H](CO)NC(=O)[C@@H]1CCCN1C(=O)[C@@H]1CCCN1C(=O)[C@H](CO)NC(=O)[C@@H]1CCCN1C(=O)[C@@H](NC(=O)CNC(=O)CNC(=O)[C@H](CO)NC(=O)CNC(=O)CNC(=O)CCCC[C@@H]1SC[C@@H]2NC(=O)N[C@@H]21)[C@@H](C)O)C(=O)O [Whi5-NLS] (Biotin-GGSGGTPSPPSPPGI-OH; N-terminus and C-terminus assumed) | – | > 25 µM | – | – | –
H3 aa1-21 (Ser10-P): "nonsubstrate" peptide (H3 aa1-21) in the phosphorylated form (Ser10-P) [reference compound] | did not bind | – | – | – | –
H3 aa1-21 unphosphorylated: "nonsubstrate" peptide (H3 aa1-21) in the unphosphorylated form [reference compound] | did not bind | – | – | – | –
